Laboratory results as given in paper PMC7819857, “Identification of Inhibitors of Integrin Cytoplasmic Domain Interactions With Syk” (Frontiers in Immunology, 2021).

How the values were obtained:
full-length Syk = target: T1, full-length Syk (Homo sapiens, UniProt P43405); experiment: Syk kinase activity assay; assay type: biochemical; conditions: 100 uM, 100-fold higher than the AlphaScreen IC50
T1 construct: ceftazidime had no effect on the catalytic function of full-length Syk
Excerpt: Figure 6 Selective inhibition of integrin signaling by ceftazidime. (A) Schematic illustration of the pITAM-Syk AlphaScreen used to test antagonist selectivity. (B) Comparison between ceftazidime (Ctaz) and pITAM peptide inhibition of pITAM-Syk binding in the AlphaScreen assay described in (A). […] Data are expressed as mean ± range from duplicate determinations. One of four representative assays is shown. (C) Effect of ceftazidime on Syk kinase activity. Ceftazidime (Ctaz) or Syk inhibitor P505-15 was used at 100 uM. Kinase activity is expressed as percent of maximum signal. Data are expressed as mean ± SEM (n = 3). **p < 0.01 (D) Selective effects of ceftazidime on integrin signaling. […] Phosphorylation of Syk (left and right panel) and Pyk-2 (center panel) was analyzed by immunoprecipitation and western blot. […] Quantification is shown below (left panel, n = 5; center panel, n = 3; right panel, n = 3), normalized to phosphorylation in suspension. Results are expressed as the mean ± SEM. […] Expression of interleukin (IL)-1β and monocyte chemoattractant protein (MCP)-1 genes was examined by quantitative real-time polymerase chain reaction. Data are expressed as expression levels relative to control cells kept in suspension. […] P-values were calculated by the Student t test. […]

[1] = test system: IL-1β gene expression in THP-1 cells; experiment: Quantitative PCR of adhesion-dependent IL-1β expression in THP-1 cells; assay type: cell-based, human; conditions: 100 µM loaded cells, plated on CS-1, 4 h, qPCR
Procedure: THP-1 cells (2 × 10^6 per treatment group) that were glycerol loaded with ceftazidime (100 µM) or vehicle control (as described above) were plated on CS-1 peptide (10 µg/ml; 6-well plates) in serum-free RPMI-1640. Control cells were also kept in suspension. Plated and suspension cells were incubated for 4 h at 37°C. After incubation, the medium was removed, and RNA was isolated from cells with a Qiagen RNA extraction kit. After cDNA synthesis, quantitative real-time PCR was used to determine the relative gene expression levels of IL-1β and monocyte chemoattractant protein (MCP)-1 in THP-1 cells adhered to CS-1 in the presence of vehicle or ceftazidime relative to that of cells in suspension. The cycle threshold (Ct) results generated were analyzed according to the comparative Ct method (2^-ΔΔCt), where ΔCt is the difference between the CT value of target versus GAPDH control, and ΔΔCt is the difference between the ΔCt values of a given treated adherent cell sample and that of cells in suspension. Statistical differences between the two treatment groups for each target were determined by a two-tailed, unpaired Student t test using GraphPad Prism 7.04 statistical software.
Figure 6 Selective inhibition of integrin signaling by ceftazidime. […] Data are expressed as mean ± range from duplicate determinations. […] Kinase activity is expressed as percent of maximum signal. […]

effect on the catalytic function of full-length Syk (full-length Syk): no effect
Compound: CC(C)(O/N=C(\C(=O)N[C@@H]1C(=O)N2C(C(=O)[O-])=C(C[n+]3ccccc3)CS[C@H]12)c1csc(N)n1)C(=O)O [ceftazidime]
adhesion-dependent induction of the expression of IL-1β [1]: significantly inhibited
